# Measured values taken from patent publication US20030130340A1, “Novel benzothiophene derivatives” (Daiichi Pharmaceutical Co. Ltd., priority 2000, published 2003).
# Structures can show the parent of a compound that is named as a salt.
# Target: T1, steroid 17α-hydroxylase and/or steroid C17-20 lyase (Rattus norvegicus, UniProt P11715)
# T1 construct: the testis of rats (SD, male) was homogenized and centrifuged to obtain microsome; from tissue; host or cells: rat (SD, male) testis microsomes
# T1 sequence (P11715 1-507): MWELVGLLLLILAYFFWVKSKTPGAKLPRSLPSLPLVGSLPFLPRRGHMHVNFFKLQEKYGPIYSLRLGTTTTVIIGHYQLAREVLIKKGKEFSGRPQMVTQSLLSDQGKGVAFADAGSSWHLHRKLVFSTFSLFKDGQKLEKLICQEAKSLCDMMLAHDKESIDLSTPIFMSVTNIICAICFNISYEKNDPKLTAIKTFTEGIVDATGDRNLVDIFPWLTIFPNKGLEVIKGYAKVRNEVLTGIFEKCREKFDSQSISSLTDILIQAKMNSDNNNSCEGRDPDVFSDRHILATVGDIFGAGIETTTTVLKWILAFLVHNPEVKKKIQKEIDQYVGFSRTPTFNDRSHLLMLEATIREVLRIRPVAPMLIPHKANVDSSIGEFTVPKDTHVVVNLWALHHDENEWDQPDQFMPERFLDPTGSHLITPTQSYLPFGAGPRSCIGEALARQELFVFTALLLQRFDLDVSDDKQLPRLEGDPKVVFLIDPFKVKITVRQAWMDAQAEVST
# Test: Measurement of steroid 17α-hydroxylase and/or steroid C17-20 lyase inhibitory activity (rat testis microsome, HPLC)
# Format: biochemical
# Settings: Enzyme source: rat testis microsome; test compound 300 nM; substrate 25 μM 17α-hydroxyprogesterone; NADPH 500 μM; 20 minutes at 37° C.
# Description: An experiment was carried out according to the method of T. Sergejew and R. W. Hartmann (J. Enzyme Inhibition, 8, 113(1994)). That is, the testis of rats (SD, male) was homogenized and centrifuged to obtain microsome. […] After the addition of 100 μl of microsome protein solution, the protein contentration was adjusted to 0.1 mg/ml by 50 mM phosphate buffer solution (pH 7.4), 140 μl of 125 nmol NADPH solution, and 10 μl of 6.25 nmol 17α-hydroxyprogesterone, the mixture was incubated for 20 minutes at 37° C. 50 μl of 1N hydrochloric acid and 1000 μl of ethyl acetate were sequentially added to the mixture. The mixture was shaken and centrifuged. The ethyl acetate layer was washed with 250 μl of 50 mM phosphate buffer solution (pH 7.4) and 50 μl of 1N hydrochloric acid, centrifuged, and concentrated. The concentrate was dissolved in 100 μl of acetonitrile. 10 μl of this solution was charged to high performance liquid chromatography. The amounts of the substrate and the product (androstenedione and testosterone) were measured to calculate the enzyme activity. In this experiment, a sample without the test compound was provided as a control group. Steroid 17α-hydroxylase and/or steroid C17-20-lyase inhibitory activity (%) was calculated by the following equation (1) using the amounts of the substrate and the product obtained.
inhibition at 0.3 µM,Inhibitory activity (%),SMILES
93%,,"Fc1ccc(-c2ccc3c(-c4cccnc4)csc3c2)cc1 [Example 13, 3-[6-(4-fluorophenyl)benzo[b]thiophen-3-yl]pyridine hydrochloride]"
59%,,"Oc1ccc2c(-c3cccnc3)csc2c1 [Example 8, 3-(3-pyridyl)benzo[b]thiophen-6-ol]"
37%,,"CC(C)Oc1cccc(-c2ccc3c(-c4cccnc4)csc3c2)c1 [Example 51, 3-[6-(3-isopropyloxyphenyl)benzo[b]thiophen-3-yl]pyridine hydrochloride]"
97%,,"CCOc1ccc2c(-c3cccnc3)csc2c1 [Example 43, 3-(6-ethyloxybenzo[b]thiophen-3-yl)pyridine hydrochloride]"
86%,,"O=[N+]([O-])c1cccc(-c2ccc3c(-c4cccnc4)csc3c2)c1 [Example 53, 3-[6-(3-nitrophenyl)benzo[b]thiophen-3-yl]pyridine]"
100%,,"c1cncc(-c2csc3cc(-c4ccsc4)ccc23)c1 [Example 31, 3-[6-(3-thienyl)benzo[b]thiophen-3-yl]pyridine hydrochloride]"
100%,,"Nc1cccc(-c2ccc3c(-c4cccnc4)csc3c2)c1 [Example 23, 3-[3-(3-pyridyl)benzo[b]thiophen-6-yl]phenylamine]"
71%,,"c1ccc(COc2ccc3c(-c4cccnc4)csc3c2)cc1 [Example 11, 3-(6-benzyloxybenzo[b]thiophen-3-yl)pyridine hydrochloride]"
37%,,"COc1ccc(-c2ccc3c(-c4cccnc4)csc3c2)cc1 [Example 18, 3-[6-(4-methoxyphenyl)benzo[b]thiophen-3-yl]pyridine]"
76%,,"c1cncc(-c2csc3cc(OC4CCCC4)ccc23)c1 [Example 25, 3-(6-cyclopentyloxybenzo[b]thiophen-3-yl)pyridine hydrochloride]"
89%,,"COc1ccc2c(-c3cccnc3)csc2c1 [Example 2, 3-[6-methoxybenzo[b]thiophen-3-yl]pyridine hydrochloride]"
57%,,"c1cncc(-c2csc3cc(-c4ccc5c(c4)OCO5)ccc23)c1 [Example 42, 3-[6-(1,3-benzodioxol-5-yl)benzo[b]thiophen-3-yl]pyridine hydrochloride]"
,71%,"O=C(Oc1ccc2c(-c3cccnc3)csc2c1)c1ccccc1 [Example 10, 3-(3-pyridyl)benzo[b]thiophen-6-yl=benzoate]"
100%,,"c1cncc(-c2csc3cc(OC4CCC4)ccc23)c1 [Example 30, 3-(6-cyclobutyloxybenzo[b]thiophen-3-yl) pyridine hydrochloride]"
93%,,"c1ccc(-c2ccc3c(-c4cccnc4)csc3c2)cc1 [Example 15, 3-(6-phenylbenzo[b]thiophen-3-yl)pyridine]"
98%,,"CC(C)Nc1ccc2c(-c3cccnc3)csc2c1 [Example 54, isopropyl[3-(3-pyridyl)benzo[b]thiophen-6-yl]amine]"
73%,,"Oc1ccc(-c2ccc3c(-c4cccnc4)csc3c2)cc1O [Example 22, 4-[3-(3-pyridyl)benzo[b]thiophen-6-yl]benzene-1,2-diol]"
30%,,"COc1ccc(-c2ccc3c(-c4cccnc4)csc3c2)cc1OC [Example 21, 3-[6-(3,4-dimethoxyphenyl)benzo[b]thiophen-3-yl]pyridine]"
100%,,"CC(C)Oc1ccc2c(-c3cccnc3)csc2c1 [Example 12, 3-(6-isopropyloxybenzo[b]thiophen-3-yl)pyridine hydrochloride]"

inhibition at 0.3 µM,Inhibitory activity (%),SMILES
79%,,"CC(C)COc1ccc2c(-c3cccnc3)csc2c1 [Example 40, 3-(6-isobutyloxybenzo[b]thiophen-3-yl) pyridine hydrochloride]"
80%,,"CCCCOc1ccc2c(-c3cccnc3)csc2c1 [Example 37, 3-(6-butyloxybenzo[b]thiophen-3-yl)pyridine hydrochloride]"
1%,,"COc1cccc(Oc2ccc3c(-c4cccnc4)csc3c2)c1 [Example 26, 3-[6-(3-methoxyphenoxy)benzo[b]thiophen-3-yl]pyridine hydrochloride]"
93%,,"CCCc1ccc2c(-c3cccnc3)csc2c1 [Example 52, 3-(6-propylbenzo[b]thiophen-3-yl)pyridine hydrochloride]"
33%,,"CN(C)CCOc1ccc2c(-c3cccnc3)csc2c1 [Example 45, 3-[6-(N,N-dimethyl-2-aminoethyloxy)benzo[b]thiophen-3-yl]pyridine dimaleate]"
73%,,"COc1cccc(-c2ccc3c(-c4cccnc4)csc3c2)c1 [Example 16, 3-[6-(3-methoxyphenyl)benzo[b]thiophen-3-yl]pyridine hydrochloride]"
64%,,"CC(=O)c1cccc(-c2ccc3c(-c4cccnc4)csc3c2)c1 [Example 39, 1-{3-[3-(3-pyridyl)benzo[b]thiophen-6-yl]phenyl}-1-ethanone]"
63%,,"CC(=O)Nc1ccc2c(-c3cccnc3)csc2c1 [Example 56, N1-[3-(3-pyridyl)benzo[b]thiophen-6-yl]acetamide]"
25%,,"Brc1cccc2scc(-c3cccnc3)c12 [Example 29, 3-(4-bromobenzo[b]thiophen-3-yl)pyridine hydrochloride]"
100%,,"CC(C)Cc1ccc2c(-c3cccnc3)csc2c1 [Example 46, 3-(6-isobutylbenzo[b]thiophen-3-yl)pyridine hydrochloride]"
,63%,"CC(=O)Oc1ccc2c(-c3cccnc3)csc2c1 [Example 9, 3-(3-pyridyl)benzo[b]thiophen-6-yl=acetate]"
100%,,"c1cncc(-c2csc3cc(-c4cccs4)ccc23)c1 [Example 33, 3-[6-(2-thienyl)benzo[b]thiophen-3-yl]pyridine hydrochloride]"
53%,,"CSc1ccc(-c2ccc3c(-c4cccnc4)csc3c2)cc1 [Example 47, 3-[6-(4-methylthiophenyl)benzo[b]thiophen-3-yl]pyridine hydrochloride]"
61%,,"CCCCCCOc1ccc2c(-c3cccnc3)csc2c1 [Example 35, 3-(6-hexyloxybenzo[b]thiophen-3-yl)pyridine hydrochloride]"
100%,,"c1cncc(-c2csc3cc(-c4ccoc4)ccc23)c1 [Example 32, 3-[6-(3-furyl)benzo[b]thiophen-3-yl]pyridine hydrochloride]"
68%,,"Oc1ccc(-c2ccc3c(-c4cccnc4)csc3c2)cc1 [Example 19, 4-[3-(3-pyridyl)benzo[b]thiophen-6-yl]-phenol]"
60%,,"CCCCCOc1ccc2c(-c3cccnc3)csc2c1 [Example 36, 3-(6-amyloxybenzo[b]thiophen-3-yl)pyridine hydrochloride]"
80%,,"c1cncc(-c2csc3cc(C4CCCCC4)ccc23)c1 [Example 50, 3-(6-cyclohexylbenzo[b]thiophen-3-yl)pyridine hydrochloride]"

SMILES,inhibition at 0.3 µM,Inhibitory activity (%)
"Cl.FC(F)(F)c1ccccc1-c1ccc2c(-c3cccnc3)csc2c1 [Example 48, 3-{[6-(2-trifluoromethyl)phenyl]benzo[b]thiophen-3-yl}pyridine hydrochloride]",,54%
